# Legend:
# Experiment in all cases: NCI-60 cancer screen
# Type in all cases: cell-based, human
# SW-620 = settings: SW-620, Colon Cancer; 10 μM
# A498 = settings: A498, Renal Cancer; 10 μM
# CAKI-1 = settings: CAKI-1, Renal Cancer; 10 μM
# COLO 205 = settings: COLO 205, Colon Cancer; 10 μM
# HT29 = settings: HT29, Colon Cancer; 10 μM
# SF-268 = settings: SF-268, CNS Cancer; 10 μM
# RXF 393 = settings: RXF 393, Renal Cancer; 10 μM
# EKVX = settings: Non-Small Cell Lung Cancer, 10 μM
# LOX IMVI = settings: Melanoma, 10 μM
# MDA-MB-468 = settings: MDA-MB-468, Breast Cancer; 10 μM
# MDA-MB-231/ATCC = settings: Breast Cancer, 10 μM
# SN12C = settings: Renal Cancer, 10 μM
# MCF7 = settings: MCF7, Breast Cancer; 10 μM
# SK-MEL-5 = settings: SK-MEL-5, Melanoma; 10 μM
# SNB-75 = settings: SNB-75, CNS Cancer; 10 μM
# UO-31 = settings: UO-31, Renal Cancer; 10 μM
# HCC-2998 = settings: HCC-2998, Colon Cancer; 10 μM
# HOP-92 = settings: HOP-92, Non-Small Cell Lung Cancer; 10 μM
# NCI-H226 = settings: NCI-H226, Non-Small Cell Lung Cancer; 10 μM
# HL-60(TB) = settings: Leukemia, 10 μM
# IGROV1 = settings: IGROV1, Ovarian Cancer; 10 μM
# SK-MEL-28 = settings: SK-MEL-28, Melanoma; 10 μM
# SR = settings: Leukemia, 10 μM
# UACC-62 = settings: UACC-62, Melanoma; 10 μM
# MALME-3M = settings: Melanoma, 10 μM
# HOP-62 = settings: HOP-62, Non-Small Cell Lung Cancer; 10 μM
# SF-539 = settings: SF-539, CNS Cancer; 10 μM
# M14 = settings: M14, Melanoma; 10 μM
# BT-549 = settings: BT-549, Breast Cancer; 10 μM
# DU-145 = settings: DU-145, Prostate Cancer; 10 μM
# NCI-H322M = settings: Non-Small Cell Lung Cancer, 10 μM
# KM12 = settings: KM12, Colon Cancer; 10 μM
# PC-3 = settings: PC-3, Prostate Cancer; 10 μM
# TK-10 = settings: TK-10, Renal Cancer; 10 μM
# T-47D = settings: Breast Cancer, 10 μM
# U251 = settings: U251, CNS Cancer; 10 μM
smiles,measurement,setting,value
"C=C(C)[C@@H]1CC=C2c3sc(-c4ccc(O)cc4)nc3C[C@@H](C)[C@]2(C)C1 [Compound 15, 4-[(5R,5aS,7R)-7-isopropenyl-5,5a-dimethyl-5,6,7,8-tetrahydro-4H-benzo[g][1,3]benzothiazol-2-yl]phenol]",Growth Percent,SW-620,103.38%
same,Growth Percent,A498,107.24%
same,Growth Percent,CAKI-1,99.88%
same,Growth Percent,COLO 205,118.41%
same,Growth Percent,HT29,105.86%
same,Growth Percent,SF-268,100.98%
same,Growth Percent,RXF 393,113.93%
same,Growth Percent,EKVX,101.37%
same,Growth Percent,LOX IMVI,101.88%
same,Growth Percent,MDA-MB-468,102.12%
same,Growth Percent,MDA-MB-231/ATCC,101.25%
same,Growth Percent,SN12C,94.92%
same,Growth Percent,MCF7,89.98%
same,Growth Percent,SK-MEL-5,99.11%
same,Growth Percent,SNB-75,87.74%
same,Growth Percent,UO-31,88.19%
same,Growth Percent,HCC-2998,100.46%
same,Growth Percent,HOP-92,96.54%
same,Growth Percent,NCI-H226,94.10%
same,Growth Percent,HL-60(TB),100.82%
same,Growth Percent,IGROV1,102.22%
same,Growth Percent,SK-MEL-28,106.43%
same,Growth Percent,SR,113.66%
same,Growth Percent,UACC-62,93.02%
same,Growth Percent,MALME-3M,99.38%
same,Growth Percent,HOP-62,95.96%
same,Growth Percent,SF-539,101.06%
same,Growth Percent,M14,98.96%
same,Growth Percent,BT-549,115.53%
same,Growth Percent,DU-145,104.97%
same,Growth Percent,NCI-H322M,102.27%
same,Growth Percent,KM12,103.49%
same,Growth Percent,PC-3,94.38%
same,Growth Percent,TK-10,118.28%
same,Growth Percent,T-47D,84.40%
same,Growth Percent,U251,102.73%

# Reference: patent US11970473B2, “Nootkatone derivatives and methods of using the same” (Arkansas State University—Jonesboro, priority 2021, dated 2024)
